Reference: patent US20230140290A1, “SALICYLAMIDE DERIVATIVES AND RELATED METHODS OF MAKING” (THE BOARD OF REGENTS OF THE UNIVERSITY OF TEXAS SY, priority 2020, published 2023)

What was measured:
HAdV5-GFP [1] = assay: Plaque assay (inhibition of HAdV plaque formation); type: cell-based, HAdV-5; conditions: for Selectivity index (SI): ratio of CC50 to IC50 in plaque assay; for inhibition at 10 µM: read-out: Plaque Assay (%) Inhibition (10 μM); for IC50: read-out: Plaque Assay IC50 (μM), HAdV5-GFP, low MOI, 293β5 cell line
Outline: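 Cells at 80-90% confluency infected with HAdV5-GFP at 0.06 vp/cell, rocked 2 h at 37° C, then washed with PBS. Compounds tested at 10 μM and in dose-response from 10 to 0.3 μM, included in the post-infection mixture.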

A549 cells = assay: Cytotoxicity assay (AlamarBlue); conditions: read-out: CC50 (μM), cytotoxic concentration 50%; A549 cell line, 48 h
Procedure: Cytotoxicity Assay. The cytotoxicity of the compounds was analyzed by commercial kit AlamarBlue® (Invitrogen, Ref. DAL1025). A549 cells at a density of 5×10^3 cells per well in 96-well plates were seeded. […] Cells were then incubated at 37° C. for 48 h following the kit protocol. The cytotoxic concentration 50 (CC50) value was obtained using the statistical package GraphPad Prism. This assay was performed in duplicate.

HAdV5-GFP [2] = assay: Entry assay (HAdV5-mediated GFP expression); type: cell-based, HAdV-5; conditions: A549, 48 h, read-out: (%) Inhibition Entry Assay (50 μM)
Procedure: Entry Assay. The anti-HAdV activity was measured in an entry assay using human A549 epithelial cells (3×10^5 cells/well in coming black wall, clear bottom 96-well plates) infected with HAdV5-GFP (2000 vp/cell) in the presence 50 μM of the candidates and in a dose-response assay. A standard infection curve was generated in parallel by infecting cells in the absence of compounds using serial 2-fold dilutions of virus. All reactions were done in triplicate. Cells, virus, and drugs were incubated for 48 h at 37° C. and 5% CO2.

wild-type HAdV5 = assay: Nuclear-associated HAdV genomes (real-time PCR); type: cell-based, HAdV-5; conditions: FIG. 3; 45 min post infection; concentrations by CC50 (2-50 μM)
Procedure: (§1) Nuclear-Associated HAdV Genomes. The nuclear delivery of HAdV genomes was assessed by real-time PCR following nuclear isolation from infected cells. […] Forty-five minutes after infection, A549 cells were trypsinized and collected and then washed twice with PBS. Then, cytoplasmic and nuclear fractions were separated using a hypotonic buffer solution and NP-40 detergent. The cell pellet was resuspended in 500 μL of 1×hypotonic buffer (20 mM Tris-HCl pH 7.4, 10 mM NaCl, 3 mM MgCl2) and incubated for 15 min at 4° C. Then, 25 μL of NP-40 was added and the samples were vortexed. The homogenates were centrifuged for 10 min at 835 g at 4° C. Following the removal of the cytoplasmic fraction (supernatant), HAdV DNA was isolated from the nuclear fraction (pellet) and from the cytoplasmic fraction using the QIAamp DNA Mini Kit (QIAGEN, Valencia, Calif.).
as §1, with “E.Z.N.A.® Tissue” for “QIAamp”, “DNA” for “DNA Mini”, “(Omega Bio-tek, Norcross, Ga.).” for “(QIAGEN, Valencia, Calif.).”

SMILES | Selectivity index (SI) (HAdV5-GFP [1]) | inhibition at 10 µM (HAdV5-GFP [1]) [%] | IC50 (HAdV5-GFP [1]) [µM] | CC50 (A549 cells) [µM] | Plaque Assay (%) Inhibition (10 μM) (HAdV5-GFP [1]; {}) | inhibition at 50 µM (HAdV5-GFP [2]) [%] | amount of nuclear-associated HAdV genomes versus DMSO (wild-type HAdV5)
CCCN(CCC)c1ccc(NC(=O)c2cc(Cl)ccc2O)c(Cl)c1 [Compound 91, 5-Chloro-N-(2-chloro-4-(dipropylamino)phenyl)-2-hydroxybenzamide] | 16.0 | 100 | 0.67 ± 0.03 | 10.7 ± 2.1 |  |  | 
O=C(Nc1ccc(NCc2ccc(Cl)cc2)cc1Cl)c1cc(Cl)ccc1O [Compound 96, 5-Chloro-N-(2-chloro-4-((4-chlorobenzyl)amino)phenyl)-2-hydroxybenzamide] | 49.7 | 100 | 1.2 ± 0.01 | 59.7 ± 0.3 |  |  | 
O=C(Nc1ccc(NC2CCCC2)cc1)c1cc(Cl)ccc1O [Compound 141, 5-Chloro-N-(4-(cyclopentylamino)phenyl)-2-hydroxybenzamide] | 3.9 | 99.8 ± 0.3 | 2.6 | 10 ± 2.2 |  |  | 
O=C(NCc1ccc([N+](=O)[O-])cc1)c1cc(Cl)ccc1O [Compound 43, 5-Chloro-2-hydroxy-N-(4-nitrobenzyl)benzamide] | 26.7 | 99.5 ± 0.7 | 6.56 ± 0.47 | 175 ± 43.9 |  |  | 
O=C(Nc1ccc(NC2CCCC2)cc1F)c1cc(Cl)ccc1O [Compound 142, 5-Chloro-N-(4-(cyclopentylamino)-2-fluorophenyl)-2-hydroxybenzamide] | 49.1 | 98.7 ± 0.4 | 1.04 | 51 ± 13.3 |  |  | 
CN(C)c1ccc(CNc2ccc(NC(=O)c3cc(Cl)ccc3O)c(Cl)c2)cc1 [Compound 102, 5-Chloro-N-(2-chloro-4-((4-(dimethylamino)benzyl)amino)phenyl)-2-hydroxybenzamide] | 9.0 | 100 | 2.73 ± 0.26 | 24.5 ± 3.5 |  |  | 
CCCCCCC(C)Nc1ccc(NC(=O)c2cc(Cl)ccc2O)c(Cl)c1 (stereo not shown) [Compound 83, 5-Chloro-N-(2-chloro-4-(octan-2-ylamino)phenyl)-2-hydroxybenzamide] | 73.4 | 100 | 0.32 | 23.5 ± 3 |  |  | 
O=C(NCc1ccc(Cl)cc1)c1cc(Cl)ccc1O [Compound 38, 5-Chloro-N-(4-chlorobenzyl)-2-hydroxybenzamide] | 7.6 | 97.4 ± 3.7 | 3.57 ± 1.43 | 27.1 ± 1.1 |  |  | 
CC(C)(C)OC(=O)N1CCC(Nc2ccc(NC(=O)c3cc(Cl)ccc3O)c(Cl)c2)CC1 [Compound 124, tert-Butyl 4-((3-chloro-4-(5-chloro-2-hydroxybenzamido)phenyl)amino)piperidine-1-carboxylate] | 82.6 | 88.9 ± 9 | 1.21 | 100 |  |  | 
O=C(Nc1ccc(NCCCO)cc1Cl)c1cc(Cl)ccc1O [Compound 120, 5-Chloro-N-(2-chloro-4-((3-hydroxypropyl)amino)phenyl)-2-hydroxybenzamide] |  | 36 ± 4.2 |  | 106 | inactive |  | 
Cc1ccc(O)c(C(=O)Nc2ccc(NC3CCCC3)cc2Cl)c1 [Compound 136, N-(2-Chloro-4-(cyclopentylamino)phenyl)-2-hydroxy-5-methylbenzamide] | 11.4 | 99.6 ± 0.5 | 2.72 | 30.9 ± 1.6 |  |  | 
CC(C)[C@H](NC(=O)c1cc(Cl)ccc1O)C(=O)Nc1cc(F)cc(C(F)(F)F)c1 [Compound 67, (S)-5-Chloro-N-(1-((3-fluoro-5-(trifluoromethyl)phenyl)amino)-3-methyl-1-oxobutan-2-yl)-2-hydroxybenzamide] | 65.2 | 95.8 ± 5.9 | 0.66 | 43 |  |  | 
O=C(Nc1ccc(NCc2cc(F)cc(Cl)c2)cc1Cl)c1cc(Cl)ccc1O [Compound 103, 5-Chloro-N-(2-chloro-4-((3-chloro-5-fluorobenzyl)amino)phenyl)-2-hydroxybenzamide] | 8.7 | 98.8 ± 0.6 | 1.28 ± 0.02 | 11.1 ± 0.7 |  |  | 
O=C(Nc1cc([N+](=O)[O-])ccc1F)c1cc(Cl)ccc1O [Compound 12, 5-Chloro-N-(2-fluoro-5-nitrophenyl)-2-hydroxybenzamide] | 26.2 | 100 | 0.31 | 8.1 ± 3.2 |  |  | 
O=C(Nc1ccc(NCc2cc(Cl)cc(C(F)(F)F)c2)cc1Cl)c1cc(Cl)ccc1O [Compound 105, 5-Chloro-N-(2-chloro-4-((3-chloro-5-(trifluoromethyl)benzyl)amino)phenyl)-2-hydroxybenzamide] | 17.3 | 99.3 ± 1 | 1.79 ± 0.16 | 30.9 ± 0.8 |  |  | 
O=C(Nc1ccc(NCC2CCCC2)cc1Cl)c1cc(Cl)ccc1O [Compound 86, 5-Chloro-N-(2-chloro-4-((cyclopentylmethyl)amino)phenyl)-2-hydroxybenzamide] | 17.3 | 100 | 1.24 | 21.5 |  |  | 
C[C@@H](NC(=O)c1cc(Cl)ccc1O)c1ccccc1 [Compound 46, (R)-5-Chloro-2-hydroxy-N-(1-phenylethyl)benzamide] |  | 100 |  | 84.6 ± 20.5 |  |  | 
CCCCCCCCC(C)Nc1ccc(NC(=O)c2cc(Cl)ccc2O)c(Cl)c1 (stereo not shown) [Compound 84, 5-Chloro-N-(2-chloro-4-(decan-2-ylamino)phenyl)-2-hydroxybenzamide] | 18.1 | 100 | 1.21 ± 0.02 | 21.9 ± 8.9 |  |  | 
O=C(Nc1ccc(N(CC2CC2)CC2CC2)cc1Cl)c1cc(Cl)ccc1O [Compound 92, N-(4-(Bis(cyclopropylmethyl)amino)-2-chlorophenyl)-5-chloro-2-hydroxybenzamide] | 20.7 | 100 | 0.62 ± 0.01 | 12.8 ± 4.2 |  |  | 
O=C(NCc1ccc(C(F)(F)F)cc1F)c1cc(Cl)ccc1O [Compound 37, 5-Chloro-N-(2-fluoro-4-(trifluoromethyl)benzyl)-2-hydroxybenzamide] |  | 98.8 ± 0.8 | 1.32 ± 0.04 | 45.6 ± 7.3 |  |  | 
CS(=O)(=O)Nc1ccc(Cl)cc1C(=O)Nc1ccc(NC2CCCC2)cc1Cl [Compound 140, 5-Chloro-N-(2-chloro-4-(cyclopentylamino)phenyl)-2-(methylsulfonamido)benzamide] | 20.6 | 99.8 ± 0.4 | 1.72 | 35.4 ± 2.7 |  |  | 
O=C(Nc1cc(C(F)(F)F)cc(C(F)(F)F)c1)c1cc(Cl)ccc1O [Compound 16, N-(3,5-Bis(trifluoromethyl)phenyl)-5-chloro-2-hydroxybenzamide] | 68.3 | 100 | 0.06 | 4.1 |  |  | 
C[C@@H](NC(=O)c1cc(Cl)ccc1O)c1ccc(Cl)cc1 [Compound 48, (R)-5-Chloro-N-(1-(4-chlorophenyl)ethyl)-2-hydroxybenzamide] |  | 100 |  | 31.1 ± 3.2 |  |  | 
O=C(Nc1ccc([N+](=O)[O-])cc1)c1cc(Cl)ccc1O [Compound 13, 5-Chloro-2-hydroxy-N-(4-nitrophenyl)benzamide] |  | 98 ± 2.8 | 0.11 |  |  | 100 | significant (p≤0.0001) reductions
CC(C)(C)OC(=O)NCCNc1ccc(NC(=O)c2cc(Cl)ccc2O)c(Cl)c1 [Compound 122, tert-Butyl (2-((3-chloro-4-(5-chloro-2-hydroxybenzamido)phenyl)amino)ethyl)carbamate] | 9.0 | 100 | 2.78 | 25 ± 5.7 |  |  | 
